For seven compounds, IC50, melting point and EC50 results are on record in patent US6482948B1, “Thienopyrimidine compounds and salts thereof and process for the preparation of the same” (Nippon Soda Co., Ltd., priority 1999, dated 2002).

For data set [1], the target named is T1, PDE 5 (cGMP specific PDE) (Homo sapiens, UniProt O76074).
T1 construct: from tissue; host or cells: human platelets
Nature of the data set: Phosphodiesterase inhibiting activity, PDE 5. Type of data set: biochemical. The settings on record: isozyme from human platelets; 1 μM [3H]-cAMP or [3H]-cGMP; read-out: Inhibition of PDE Activity: IC50 PDE 5. How it is done:
(§1) Pharmacological Test Example 1: Phosphodiesterase Inhibiting Activity
(§2) Cyclic nucleotide phosphodiesterases from human platelets and from the heart and kidney of a dog were eluted by the concentration gradient method with 70 to 1000 mM of sodium acetate on DEAE-cellulose column chromatography (Whatman Co. Ltd., DE-52, φ3.2×13 cm) according to the method of Thompson and others (Thompson W. J., et al., Advances in Cyclic Nucleotide Research: 10, 69-92, 1979), and separated into isozymes. PDE 5 (cGMP specific PDE) and PDE 3 (cGMP inhibitable cAMP PDE) were separated from the platelets, PDE 1 (Ca-calmodulin activatable PDE) from the heart, and PDE 4 (cGMP non-inhibitable cAMP PDE) from the kidney. The method of Thompson, et al was partially modified to measure phosphodiesterase activities: 1 μM of [3H]-cAMP or [3H]-cGMP was decomposed with phosphodiesterase. The produced 5′-AMP or 5′-GMP was decomposed to adenosine or guanosine with a snake venom (Sigma V7000). The reaction solution was added to anion exchange resin (Bio-Rad Co. Ltd., AG1-X8). Non-adsorbed adenosine or guanosine was counted by a liquid scintillation counter. A concentration causing 50% inhibition of the enzyme activity (IC50) was calculated from concentration inhibition curves.

The target in data set [2] is T2, PDE 3 (cGMP inhibitable cAMP PDE) (Homo sapiens, UniProt Q14432).
T2 construct: from tissue; host or cells: human platelets
T2 sequence (Q14432 whole entry): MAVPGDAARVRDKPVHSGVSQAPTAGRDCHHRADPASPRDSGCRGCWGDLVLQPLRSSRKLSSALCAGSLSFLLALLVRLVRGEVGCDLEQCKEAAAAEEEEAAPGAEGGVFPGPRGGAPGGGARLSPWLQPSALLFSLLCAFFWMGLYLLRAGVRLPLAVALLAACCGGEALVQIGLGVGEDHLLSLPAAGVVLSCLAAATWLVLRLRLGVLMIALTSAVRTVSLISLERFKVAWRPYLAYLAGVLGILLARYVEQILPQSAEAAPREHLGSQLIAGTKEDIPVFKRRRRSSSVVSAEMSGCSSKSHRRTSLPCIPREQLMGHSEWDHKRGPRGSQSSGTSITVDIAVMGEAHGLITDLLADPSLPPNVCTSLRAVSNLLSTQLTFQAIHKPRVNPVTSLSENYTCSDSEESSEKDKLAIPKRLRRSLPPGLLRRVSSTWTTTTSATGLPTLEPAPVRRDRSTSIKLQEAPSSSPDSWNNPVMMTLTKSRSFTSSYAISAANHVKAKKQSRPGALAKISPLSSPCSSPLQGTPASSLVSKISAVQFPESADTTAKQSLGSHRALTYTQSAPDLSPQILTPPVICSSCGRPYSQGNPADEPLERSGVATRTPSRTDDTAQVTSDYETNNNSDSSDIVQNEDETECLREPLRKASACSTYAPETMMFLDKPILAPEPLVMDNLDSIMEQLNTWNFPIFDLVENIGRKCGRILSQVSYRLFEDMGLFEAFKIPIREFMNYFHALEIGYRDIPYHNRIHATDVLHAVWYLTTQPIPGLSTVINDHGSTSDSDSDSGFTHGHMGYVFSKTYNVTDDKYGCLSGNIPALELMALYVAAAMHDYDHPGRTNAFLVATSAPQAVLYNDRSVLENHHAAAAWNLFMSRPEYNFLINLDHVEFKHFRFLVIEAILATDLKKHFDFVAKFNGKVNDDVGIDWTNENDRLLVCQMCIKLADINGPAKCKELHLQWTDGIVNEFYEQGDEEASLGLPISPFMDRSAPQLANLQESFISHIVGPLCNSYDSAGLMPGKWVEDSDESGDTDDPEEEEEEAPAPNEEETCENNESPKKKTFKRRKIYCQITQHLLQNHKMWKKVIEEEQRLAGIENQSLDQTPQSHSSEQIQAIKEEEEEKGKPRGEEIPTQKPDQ
The data set can be described thus: Phosphodiesterase inhibiting activity, PDE 3. Type of data set: biochemical. The settings on record: isozyme from human platelets; 1 μM [3H]-cAMP or [3H]-cGMP; read-out: Inhibition of PDE Activity: IC50 PDE 3. How it is done: as §1, §2

Another data set deals with thoracic aortas. The data set can be described thus: Vasodilating activity, phenylephrine-contracted thoracic aorta ring preparations (Magnus method). The settings on record: rat thoracic aorta ring preparations contracted with 1 μM phenylephrine, 37° C., drug added cumulatively. The arrangement: species or system Sprague-Dawley male rats. How it is done: Pharmacological Test Example 2: Vasodilating Activity
A vasodilating activity was assessed according to the method of Ken-ichi Hirata and Mitsuhiro Yokoyama (Arteriosclerosis and Hyperlipemia Research Strategies, published by Shujunsha (Japan), pages 275-277, 1996): The thoracic aortas were extracted from Sprague-Dawley male rats (weighing 180 to 360 g). After unnecessary connective tissues were removed, the aortas were cut to 5mm-long pieces to make ring strip preparations, and assessed by the Magnus method (37° C.). A nutrient solution used was a Krebs-Henseleit solution aerated with 5% carbon dioxide gas and 95% oxygen gas. Specimens were equilibrated for about 60 minutes, and then contracted by adding 1 μM of phenylephrine. 1 μM of acetylcholine was added at the second phenylepherine-induced contraction in order to confirm an endothelial cell dependent relaxation response. At the third phenylepherine-induced contraction, a drug to test was added cumulatively, and the relaxation action was observed. Drugs to test were all dissolved in DMSO to use for the tests. The tested drugs were assessed by 50% relaxation rates (EC50) obtained from vasodilation rates to respective concentrations (the maximum relaxation was measured by adding 100 μM of papaverine).

For the next data set, the target named is T3, PDE 2 (Homo sapiens, UniProt O00408).
T3 construct: eluted by the concentration gradient method with 70 to 1000 mM of sodium acetate on DEAE-cellulose column chromatography; from tissue
T3 sequence (O00408 whole entry): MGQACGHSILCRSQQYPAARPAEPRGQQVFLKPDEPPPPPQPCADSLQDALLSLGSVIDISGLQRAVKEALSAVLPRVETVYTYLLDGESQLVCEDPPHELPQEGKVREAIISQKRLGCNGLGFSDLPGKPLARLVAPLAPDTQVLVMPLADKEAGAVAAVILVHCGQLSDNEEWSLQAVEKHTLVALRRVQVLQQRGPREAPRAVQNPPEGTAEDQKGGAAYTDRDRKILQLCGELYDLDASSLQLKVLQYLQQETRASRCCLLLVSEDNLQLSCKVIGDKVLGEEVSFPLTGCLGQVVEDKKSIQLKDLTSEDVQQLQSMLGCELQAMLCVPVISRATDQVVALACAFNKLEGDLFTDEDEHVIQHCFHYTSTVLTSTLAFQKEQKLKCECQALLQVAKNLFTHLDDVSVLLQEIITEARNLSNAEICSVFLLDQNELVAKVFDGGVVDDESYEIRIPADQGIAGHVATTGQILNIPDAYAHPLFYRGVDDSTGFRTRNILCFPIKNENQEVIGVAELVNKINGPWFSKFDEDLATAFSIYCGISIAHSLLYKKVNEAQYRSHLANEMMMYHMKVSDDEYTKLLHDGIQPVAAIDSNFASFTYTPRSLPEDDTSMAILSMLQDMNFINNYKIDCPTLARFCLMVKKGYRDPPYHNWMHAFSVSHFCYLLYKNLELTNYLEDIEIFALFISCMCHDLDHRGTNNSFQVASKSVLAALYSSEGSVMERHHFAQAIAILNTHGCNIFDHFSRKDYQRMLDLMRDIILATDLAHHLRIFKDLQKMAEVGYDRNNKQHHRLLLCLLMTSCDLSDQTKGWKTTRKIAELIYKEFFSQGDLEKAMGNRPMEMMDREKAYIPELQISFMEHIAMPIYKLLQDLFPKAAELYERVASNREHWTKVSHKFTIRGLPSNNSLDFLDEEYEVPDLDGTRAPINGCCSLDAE
The data set can be described thus: Phosphodiesterase inhibiting activity, PDE 2. The following applies: 1 μM [3H]-cAMP or [3H]-cGMP; source of isozyme not given; read-out: Inhibition of PDE Activity: IC50 PDE 2. In kind it is biochemical. How it is done:
[Worded in the source for another target; this target is reported under the same test.] as §1, §2

Data set [3] has as its target PDE 4 (cGMP non-inhibitable cAMP PDE). The data set can be described thus: Phosphodiesterase inhibiting activity, PDE 4. The settings on record: isozyme from dog kidney; 1 μM [3H]-cAMP or [3H]-cGMP; read-out: Inhibition of PDE Activity: IC50 PDE 4. In kind it is biochemical. How it is done:
as §1, §2

Data set [4] deals with PDE 1 (Ca-calmodulin activatable PDE). Nature of the data set: Phosphodiesterase inhibiting activity, PDE 1. The settings on record: isozyme from dog heart; 1 μM [3H]-cAMP or [3H]-cGMP; read-out: Inhibition of PDE Activity: IC50 PDE 1. Type of data set: biochemical. How it is done:
as §1, §2

Some results are limits rather than exact numbers.

A word on the IC50: it is the concentration that gives 50% inhibition. As a reminder, the melting point is the temperature, or range, at which the solid turns liquid. By EC50 is commonly meant the concentration needed to bring the measured effect to its halfway point. Higher therefore signals a need for much substance. In turn, `COC(=O)CNC(=O)c1nc(NCc2ccc(OC)c(Cl)c2)c2c3c(sc2n1)CN(C(C)C)CC3` [1-54] yielded a melting point of 155 to 157 °C. Moreover, the concentration for half-maximal inhibition (IC50) in data set [1] turned out to be 0.033 µM. Further, the 50% inhibitory concentration (IC50) in data set [2] is at least 10 µM. For the same compound, the EC50 in the data set on thoracic aortas was 0.019 µM. Further, the IC50 at PDE 2 is over 10 µM. Moreover, the IC50 in data set [3] is over 10 µM. Moreover, the half-inhibitory concentration (IC50) in data set [4] is over 10 µM.

For the compound `COc1ccc(CNc2nc(-c3ccncc3)nc3sc4c(c23)CCN(C)C4)cc1Cl` [1-7], the melting point lay in the range of 118 to 120 °C. For the same compound, the IC50 in data set [1] amounted to 0.0024 µM. For the same compound, the IC50 in data set [2] turned out to be 5.4 µM. The half-maximal effective concentration (EC50) in the data set on thoracic aortas stood at 0.0095 µM. Also, the half-inhibitory concentration (IC50) at PDE 2 was 2 µM. In addition, the half-inhibitory concentration (IC50) in data set [3] was 3.7 µM. Further, the concentration for half-maximal inhibition (IC50) in data set [4] is over 10 µM.

`CCOC(=O)N1CCc2c(sc3nc(-c4ccncc4)nc(NCc4ccc(OC)c(Cl)c4)c23)C1` [1-5] registered a melting point of 218 to 220 °C. Moreover, in data set [1], the concentration for half-maximal inhibition (IC50) was found to be 0.00054 µM. For the same compound, in data set [2], the IC50 is over 10 µM. The compound also had a half-maximal effective concentration (EC50) in the data set with thoracic aortas of 0.0081 µM. Further, the IC50 at PDE 2 is over 10 µM. Besides, in data set [3], the 50% inhibitory concentration (IC50) was determined as 2.5 µM. The IC50 in data set [4] was over 10 µM.

On to `COC(=O)c1nc(NCc2ccc(OC)c(Cl)c2)c2c3c(sc2n1)CN(Cc1ccccc1)CC3` [1-65], for which the melting point was 168 to 170 °C. Besides, the IC50 in data set [1] worked out at 0.091 µM. Also, the concentration for half-maximal inhibition (IC50) in data set [2] is over 10 µM. In addition, a half-maximal effect in the data set with thoracic aortas (EC50) was put at 0.26 µM. In addition, on PDE 2, the 50% inhibitory concentration (IC50) was over 10 µM. Besides, the concentration for half-maximal inhibition (IC50) in data set [3] is over 10 µM. In data set [4], the concentration for half-maximal inhibition (IC50) is over 10 µM.

`COc1ccc(CNc2nc(-c3ccco3)nc3sc4c(c23)CCN(C)C4)cc1Cl` [1-6] returned a melting point of 90 to 92 °C. The IC50 in data set [1] was 0.05 µM. In data set [2], the half-inhibitory concentration (IC50) was over 10 µM. Besides, the midpoint of the response in the data set on thoracic aortas, the EC50, lay at 0.016 µM. Further, the half-inhibitory concentration (IC50) at PDE 2 was over 10 µM. The half-inhibitory concentration (IC50) in data set [3] was 3.6 µM. Also, the IC50 in data set [4] came out at 5.5 µM.

`COc1ccc(CNc2nc(C(=O)Nc3cccnc3)nc3sc4c(c23)CCN(C)C4)cc1Cl` [1-81] returned a melting point of 145 to 147 °C. In addition, the IC50 in data set [1] came to 0.006 µM. In addition, the 50% inhibitory concentration (IC50) in data set [2] is over 10 µM. The half-maximal effective concentration (EC50) in the data set on thoracic aortas came to 0.0031 µM. At PDE 2, the concentration for half-maximal inhibition (IC50) is over 10 µM. Also, the 50% inhibitory concentration (IC50) in data set [3] is 6.4 µM. The half-maximal inhibitory concentration (IC50) in data set [4] was over 10 µM.

For `COc1ccc(CNc2nc(C(=O)NC3CC3)nc3sc4c(c23)CCN(C(C)C)C4)cc1Cl` [1-76], the melting point lay within 112 to 114 °C. For the same compound, the IC50 in data set [1] amounted to 0.056 µM. The IC50 in data set [2] was over 10 µM. This compound also yielded an EC50 in the data set with thoracic aortas of 0.026 µM. Further, the IC50 at PDE 2 is over 10 µM. Moreover, in data set [3], the IC50 is over 10 µM. Also, the concentration for half-maximal inhibition (IC50) in data set [4] was over 10 µM.
